Laboratory results from PubChem BioAssay AID1845201 (Molecular Pharmacology Branch, DTP, NCI, 2023).
pIC50: −log10 of the molar value. Values joined by “and” are separate entries in the source; they are usually repeats but may differ in a detail not shown here. Equal entries are not always repeated.

System: COR L88 complex tumor spheroid viability
Assay: Anticancer human tumor COR L88 cell line growth inhibition;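 note: compound exposure lasted 7 days before viability readout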;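 for viability, T/C: percent of DMSO vehicle-treated spheroids = 100%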
Details: for viability, T/C: stronger effect = lower value
Method in brief: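 Complex tumor spheroids combined malignant cells with endothelial cells and mesenchymal stem cells. DNA-damaging drugs and DNA repair inhibitors were tested alone and in combination, at half-log dilutions down from clinical Cmax (top 10 microM if Cmax unknown), 0.25% DMSO final.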

[1] = curve of first compound, second compound 30 pM
[2] = curve of first compound, second compound 94.9 pM
[3] = curve of first compound, second compound 0.0003 µM
[4] = curve of first compound, second compound 0.000949 µM
[5] = curve of first compound, second compound 0.003 µM
[6] = second compound 30 pM, first compound 0.0316 µM
[7] = second compound 30 pM, first compound 0.1 µM
[8] = second compound 30 pM, first compound 0.316 µM
[9] = second compound 30 pM, first compound 1 µM
[10] = second compound 30 pM, first compound 3.16 µM
[11] = second compound 30 pM, first compound 10 µM
[12] = second compound 94.9 pM, first compound 0.0316 µM
[13] = second compound 94.9 pM, first compound 0.1 µM
[14] = second compound 94.9 pM, first compound 0.316 µM
[15] = second compound 94.9 pM, first compound 1 µM
[16] = second compound 94.9 pM, first compound 3.16 µM
[17] = second compound 94.9 pM, first compound 10 µM
[18] = second compound 0.0003 µM, first compound 0.0316 µM
[19] = second compound 0.0003 µM, first compound 0.1 µM
[20] = second compound 0.0003 µM, first compound 0.316 µM
[21] = second compound 0.0003 µM, first compound 1 µM
[22] = second compound 0.0003 µM, first compound 3.16 µM
[23] = second compound 0.0003 µM, first compound 10 µM
[24] = second compound 0.000949 µM, first compound 0.0316 µM
[25] = second compound 0.000949 µM, first compound 0.1 µM
[26] = second compound 0.000949 µM, first compound 0.316 µM
[27] = second compound 0.000949 µM, first compound 1 µM
[28] = second compound 0.000949 µM, first compound 3.16 µM
[29] = second compound 0.000949 µM, first compound 10 µM
[30] = second compound 0.003 µM, first compound 0.0316 µM
[31] = second compound 0.003 µM, first compound 0.1 µM
[32] = second compound 0.003 µM, first compound 0.316 µM
[33] = second compound 0.003 µM, first compound 1 µM
[34] = second compound 0.003 µM, first compound 3.16 µM
[35] = second compound 0.003 µM, first compound 10 µM

Structure (SMILES): CC1COCCN1c1cc(-c2ccnn2C)c2ccnc(-c3ccn[nH]3)c2n1 (configuration not stated)
- viability, T/C (compound 0.0316 µM): 94.4% and 93.6% and 97.8%
- viability, T/C (compound 0.1 µM): 59.7% and 70.8% and 77%
- viability, T/C (compound 0.316 µM): 34.2% and 52% and 53.1%
- viability, T/C (compound 1 µM): 22.5% and 30.1% and 36%
- viability, T/C (compound 3.16 µM): 9.11% and 13.8% and 14.6%
- viability, T/C (compound 10 µM): 3.91% and 5.8% and 5.02%
- pIC50 (curve of compound): 6.80 and 6.50 and 6.39

Structure (SMILES): CC(C)n1c(=O)n(C)c2cnc3cc(F)c(-c4ccc(OCCCN5CCCCC5)nc4)cc3c21 + COc1cc2c(cc1O)CCNC21CSC2c3c(OC(C)=O)c(C)c4c(c3C(COC1=O)N1C(O)C3Cc5cc(C)c(OC)c(O)c5C(C21)N3C)OCO4
- pIC50 [1]: < 5.00
- pIC50 [2]: 5.04
- pIC50 [3]: 5.32
- pIC50 [4]: 5.70
- pIC50 [5]: > 7.50
- viability, T/C [6]: 104%
- viability, T/C [7]: 107%
- viability, T/C [8]: 95.9%
- viability, T/C [9]: 104%
- viability, T/C [10]: 94.1%
- viability, T/C [11]: 51.2%
- viability, T/C [12]: 104%
- viability, T/C [13]: 103%
- viability, T/C [14]: 98%
- viability, T/C [15]: 103%
- viability, T/C [16]: 89.3%
- viability, T/C [17]: 46.1%
- viability, T/C [18]: 64.2%
- viability, T/C [19]: 67.4%
- viability, T/C [20]: 65.2%
- viability, T/C [21]: 68.3%
- viability, T/C [22]: 61.2%
- viability, T/C [23]: 30.1%
- viability, T/C [24]: 57.3%
- viability, T/C [25]: 54.5%
- viability, T/C [26]: 54.7%
- viability, T/C [27]: 53.9%
- viability, T/C [28]: 47.3%
- viability, T/C [29]: 11.1%
- viability, T/C [30]: 0.74%
- viability, T/C [31]: 0.77%
- viability, T/C [32]: 0.6%
- viability, T/C [33]: 0.82%
- viability, T/C [34]: 0.66%
- viability, T/C [35]: 0.99%

Structure (SMILES): Cn1ncnc1[C@H]1c2n[nH]c(=O)c3cc(F)cc(c23)N[C@@H]1c1ccc(F)cc1 + COc1cc2c(cc1O)CCNC21CSC2c3c(OC(C)=O)c(C)c4c(c3C(COC1=O)N1C(O)C3Cc5cc(C)c(OC)c(O)c5C(C21)N3C)OCO4
- pIC50 [1]: 6.59
- pIC50 [2]: 6.92
- pIC50 [3]: 7.40
- pIC50 [4]: > 8.02
- pIC50 [5]: > 8.02
- viability, T/C (second compound 30 pM, first compound 0.00949 µM): 90.9%
- viability, T/C (second compound 30 pM, first compound 0.03 µM): 72.8%
- viability, T/C (second compound 30 pM, first compound 0.0949 µM): 58.9%
- viability, T/C (second compound 30 pM, first compound 0.3 µM): 47.3%
- viability, T/C (second compound 30 pM, first compound 0.949 µM): 43.9%
- viability, T/C (second compound 30 pM, first compound 3 µM): 37.3%
- viability, T/C (second compound 94.9 pM, first compound 0.00949 µM): 77.1%
- viability, T/C (second compound 94.9 pM, first compound 0.03 µM): 61.3%
- viability, T/C (second compound 94.9 pM, first compound 0.0949 µM): 50.5%
- viability, T/C (second compound 94.9 pM, first compound 0.3 µM): 45.8%
- viability, T/C (second compound 94.9 pM, first compound 0.949 µM): 42.5%
- viability, T/C (second compound 94.9 pM, first compound 3 µM): 38.5%
- viability, T/C (second compound 0.0003 µM, first compound 0.00949 µM): 57.9%
- viability, T/C (second compound 0.0003 µM, first compound 0.03 µM): 51.9%
- viability, T/C (second compound 0.0003 µM, first compound 0.0949 µM): 46.1%
- viability, T/C (second compound 0.0003 µM, first compound 0.3 µM): 43.6%
- viability, T/C (second compound 0.0003 µM, first compound 0.949 µM): 39.4%
- viability, T/C (second compound 0.0003 µM, first compound 3 µM): 41%
- viability, T/C (second compound 0.000949 µM, first compound 0.00949 µM): 53.6%
- viability, T/C (second compound 0.000949 µM, first compound 0.03 µM): 45%
- viability, T/C (second compound 0.000949 µM, first compound 0.0949 µM): 44.2%
- viability, T/C (second compound 0.000949 µM, first compound 0.3 µM): 36.2%
- viability, T/C (second compound 0.000949 µM, first compound 0.949 µM): 13.9%
- viability, T/C (second compound 0.000949 µM, first compound 3 µM): 2.75%
- viability, T/C (second compound 0.003 µM, first compound 0.00949 µM): 1.06%
- viability, T/C (second compound 0.003 µM, first compound 0.03 µM): 0.96%
- viability, T/C (second compound 0.003 µM, first compound 0.0949 µM): 0.96%
- viability, T/C (second compound 0.003 µM, first compound 0.3 µM): 0.79%
- viability, T/C (second compound 0.003 µM, first compound 0.949 µM): 1.64%
- viability, T/C (second compound 0.003 µM, first compound 3 µM): 2.68%

Structure (SMILES): [2H]c1nc(C)nc([2H])c1-c1cc(NC[C@@H](C)c2cccc3c(C(=O)NC)ccnc23)ncn1 + COc1cc2c(cc1O)CCNC21CSC2c3c(OC(C)=O)c(C)c4c(c3C(COC1=O)N1C(O)C3Cc5cc(C)c(OC)c(O)c5C(C21)N3C)OCO4
- pIC50 [1]: < 5.00
- pIC50 [2]: < 5.00
- pIC50 [3]: < 5.00
- pIC50 [4]: 5.35
- pIC50 [5]: > 7.50
- viability, T/C [6]: 98.3%
- viability, T/C [7]: 98.8%
- viability, T/C [8]: 96.3%
- viability, T/C [9]: 105%
- viability, T/C [10]: 102%
- viability, T/C [11]: 98.3%
- viability, T/C [12]: 102%
- viability, T/C [13]: 100%
- viability, T/C [14]: 110%
- viability, T/C [15]: 101%
- viability, T/C [16]: 94.6%
- viability, T/C [17]: 88%
- viability, T/C [18]: 72.8%
- viability, T/C [19]: 68.8%
- viability, T/C [20]: 66.9%
- viability, T/C [21]: 73.3%
- viability, T/C [22]: 73.4%
- viability, T/C [23]: 69.6%
- viability, T/C [24]: 59%
- viability, T/C [25]: 58.7%
- viability, T/C [26]: 55.9%
- viability, T/C [27]: 57.4%
- viability, T/C [28]: 50.7%
- viability, T/C [29]: 45.8%
- viability, T/C [30]: 0.64%
- viability, T/C [31]: 0.73%
- viability, T/C [32]: 0.53%
- viability, T/C [33]: 0.45%
- viability, T/C [34]: 0.55%
- viability, T/C [35]: 1.03%

Structure (SMILES): O=C(c1cc(Cc2n[nH]c(=O)c3ccccc23)ccc1F)N1CCN(C(=O)C2CC2)CC1 + Cn1nnc2c(C(N)=O)ncn2c1=O
- pIC50 (curve of first compound, second compound 1 µM): 4.67
- pIC50 (curve of first compound, second compound 3.16 µM): 4.68
- pIC50 (curve of first compound, second compound 10 µM): 5.03
- pIC50 (curve of first compound, second compound 31.6 µM): 5.43
- pIC50 (curve of first compound, second compound 100 µM): 6.58
- viability, T/C (second compound 1 µM, first compound 0.0949 µM): 92.8%
- viability, T/C (second compound 1 µM, first compound 0.3 µM): 92.8%
- viability, T/C (second compound 1 µM, first compound 0.949 µM): 97.3%
- viability, T/C (second compound 1 µM, first compound 3 µM): 78.4%
- viability, T/C (second compound 1 µM, first compound 9.49 µM): 61%
- viability, T/C (second compound 1 µM, first compound 30 µM): 45.4%
- viability, T/C (second compound 3.16 µM, first compound 0.0949 µM): 102%
- viability, T/C (second compound 3.16 µM, first compound 0.3 µM): 93.6%
- viability, T/C (second compound 3.16 µM, first compound 0.949 µM): 91.8%
- viability, T/C (second compound 3.16 µM, first compound 3 µM): 86.5%
- viability, T/C (second compound 3.16 µM, first compound 9.49 µM): 54.7%
- viability, T/C (second compound 3.16 µM, first compound 30 µM): 47.9%
- viability, T/C (second compound 10 µM, first compound 0.0949 µM): 72.6%
- viability, T/C (second compound 10 µM, first compound 0.3 µM): 83.1%
- viability, T/C (second compound 10 µM, first compound 0.949 µM): 75.5%
- viability, T/C (second compound 10 µM, first compound 3 µM): 64.2%
- viability, T/C (second compound 10 µM, first compound 9.49 µM): 50.6%
- viability, T/C (second compound 10 µM, first compound 30 µM): 45.1%
- viability, T/C (second compound 31.6 µM, first compound 0.0949 µM): 61.8%
- viability, T/C (second compound 31.6 µM, first compound 0.3 µM): 58.1%
- viability, T/C (second compound 31.6 µM, first compound 0.949 µM): 57.5%
- viability, T/C (second compound 31.6 µM, first compound 3 µM): 49.5%
- viability, T/C (second compound 31.6 µM, first compound 9.49 µM): 45.5%
- viability, T/C (second compound 31.6 µM, first compound 30 µM): 41.2%
- viability, T/C (second compound 100 µM, first compound 0.0949 µM): 53.9%
- viability, T/C (second compound 100 µM, first compound 0.3 µM): 48.4%
- viability, T/C (second compound 100 µM, first compound 0.949 µM): 46.5%
- viability, T/C (second compound 100 µM, first compound 3 µM): 43.7%
- viability, T/C (second compound 100 µM, first compound 9.49 µM): 39%
- viability, T/C (second compound 100 µM, first compound 30 µM): 37%
